pKi: −log10 of the molar value. Like-named read-outs stand apart in the source and are kept apart here.
Key:
GCase = conditions: cited from earlier work
[1] = biological target: T1, Fabrazyme = commercial recombinant human lysosomal α-galactosidase (GH27) (Homo sapiens, UniProt P06280); assay: Ki determination, Fabrazyme (acid α-galactosidase); format: biochemical; conditions: pH 5.5, substrate 2,4-DNP α-Gal, room temperature
T1 construct: purchased Fabrazyme
T1 sequence (P06280 32-429): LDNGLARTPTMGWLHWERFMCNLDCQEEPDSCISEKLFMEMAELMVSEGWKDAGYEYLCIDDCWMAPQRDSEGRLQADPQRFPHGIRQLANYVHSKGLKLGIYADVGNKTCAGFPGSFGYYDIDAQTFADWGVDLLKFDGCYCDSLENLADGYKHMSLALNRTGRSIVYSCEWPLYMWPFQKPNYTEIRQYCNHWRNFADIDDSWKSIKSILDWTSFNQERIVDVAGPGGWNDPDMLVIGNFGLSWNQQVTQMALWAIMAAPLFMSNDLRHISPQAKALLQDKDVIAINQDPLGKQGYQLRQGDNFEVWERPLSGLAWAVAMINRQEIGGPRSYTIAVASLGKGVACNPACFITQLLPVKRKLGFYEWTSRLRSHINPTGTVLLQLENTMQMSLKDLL
Method: Kinetic studies were performed at room temperature in an appropriate buffer for each enzyme (specific conditions can be found below). All the reactions were performed in half-area 96-well-plates (Corning, Corning, NY, USA) and monitored with a Synergy H1 plate reader (BioTek Instruments, Winooski, VT, USA). In each experiment, the appropriate concentration of the enzyme was incubated with different concentrations of the inhibitors for 2–5 min before initiating the reaction by the addition of substrate. […] Ki determinations were performed using two different substrate concentrations. For each substrate concentration, a range of three to six inhibitor concentrations was used. Dixon plots (1/v vs. [I]) were constructed to validate the use of competitive inhibition model and to assess the fit of the data. The data were then fit to a competitive inhibition model using non-linear regression analysis with Grafit 7.0.3 (Erithacus Software, East Grinstead, UK).
Fabrazyme (Acid α-galactosidase): 20 mM sodium citrate, 50 mM sodium phosphate, 1.0 mM tetrasodium EDTA, 0.25% v/v Triton X-100® and 0.25% w/v taurocholic acid buffer (pH 5.5).

[2] = biological target: α-glucosidase from Saccharomyces cerevisiae (GH13); assay: Ki determination, S. cerevisiae α-glucosidase; format: biochemical; conditions: pH 7.0, substrate pNP α-Glc, room temperature; read-out: Ki S. cer. (GH13) α-Glc
Method: (§1) Kinetic studies were performed at room temperature in an appropriate buffer for each enzyme (specific conditions can be found below). All the reactions were performed in half-area 96-well-plates (Corning, Corning, NY, USA) and monitored with a Synergy H1 plate reader (BioTek Instruments, Winooski, VT, USA). In each experiment, the appropriate concentration of the enzyme was incubated with different concentrations of the inhibitors for 2–5 min before initiating the reaction by the addition of substrate. The initial rate was then measured by monitoring the increase in absorbance as a result of the release of 4-nitrophenol at 405 nm for up to five minutes. Ki determinations were performed using two different substrate concentrations. For each substrate concentration, a range of three to six inhibitor concentrations was used. Dixon plots (1/v vs. [I]) were constructed to validate the use of competitive inhibition model and to assess the fit of the data. The data were then fit to a competitive inhibition model using non-linear regression analysis with Grafit 7.0.3 (Erithacus Software, East Grinstead, UK).
S. cerevisiae α-Glucosidase: 50 mM sodium phosphate buffer (pH 7.0). Substrate: pNP α-Glc, Km = 0.75 mM.

[3] = biological target: T2, β-glucosidase/β-galactosidase from Agrobacterium sp. (Abg, GH1) (Agrobacterium sp., UniProt P12614); assay: Ki determination, Agrobacterium sp. β-glucosidase (Abg); format: biochemical; conditions: pH 7, substrate pNP β-Gal, room temperature; read-out: Ki Abg (GH1) β-Glc/Gal
T2 sequence (P12614 1-459): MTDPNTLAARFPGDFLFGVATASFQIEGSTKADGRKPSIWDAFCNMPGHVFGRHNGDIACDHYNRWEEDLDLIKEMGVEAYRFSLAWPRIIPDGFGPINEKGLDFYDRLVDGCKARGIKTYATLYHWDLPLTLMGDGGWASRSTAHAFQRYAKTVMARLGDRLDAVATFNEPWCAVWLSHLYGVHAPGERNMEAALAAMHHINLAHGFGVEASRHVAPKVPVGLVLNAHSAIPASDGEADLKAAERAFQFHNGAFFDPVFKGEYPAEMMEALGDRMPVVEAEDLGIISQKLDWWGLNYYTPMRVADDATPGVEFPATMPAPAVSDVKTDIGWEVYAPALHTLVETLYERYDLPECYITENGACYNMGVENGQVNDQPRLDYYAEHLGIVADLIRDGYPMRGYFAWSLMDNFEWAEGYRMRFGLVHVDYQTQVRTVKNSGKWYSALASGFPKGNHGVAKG
Method: as §1
Agrobacterium sp. β-glucosidase (Abg): [64, 65] 50 mM sodium phosphate buffer (pH 7).

[4] = biological target: T3, recombinant human lysosomal β-glucocerebrosidase (GCase, GH30) (Homo sapiens, UniProt P04062); assay: Ki determination, GCase (β-glucocerebrosidase); format: biochemical
T3 sequence (P04062 40-536): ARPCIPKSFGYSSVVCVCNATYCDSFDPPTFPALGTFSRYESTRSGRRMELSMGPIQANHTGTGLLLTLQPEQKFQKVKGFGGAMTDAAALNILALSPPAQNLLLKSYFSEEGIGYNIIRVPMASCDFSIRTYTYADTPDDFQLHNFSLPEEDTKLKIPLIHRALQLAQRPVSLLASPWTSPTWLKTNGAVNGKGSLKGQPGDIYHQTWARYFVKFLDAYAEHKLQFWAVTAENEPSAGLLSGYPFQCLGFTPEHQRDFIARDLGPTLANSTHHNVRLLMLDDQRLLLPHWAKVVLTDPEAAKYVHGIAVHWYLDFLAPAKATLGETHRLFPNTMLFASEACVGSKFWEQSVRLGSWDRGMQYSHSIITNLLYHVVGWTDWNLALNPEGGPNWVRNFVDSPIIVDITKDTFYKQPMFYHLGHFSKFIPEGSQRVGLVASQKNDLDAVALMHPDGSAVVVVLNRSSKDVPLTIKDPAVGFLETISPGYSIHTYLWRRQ
Method: as §1
GCase (β-glucocerebrosidase): 20 mM sodium citrate, 50 mM sodium phosphate, 1.0 mM tetrasodium EDTA, 0.25% v/v Triton X-100® and 0.25% w/v taurocholic acid buffer (pH 7). Substrate: 2,4-DNP β-Glc, Km = 2.7 mM.

[5] = biological target: lac Z β-galactosidase from E. coli (GH2) (Escherichia coli, UniProt P00722); assay: Ki determination, E. coli lac Z β-galactosidase; format: biochemical; conditions: pH 7, substrate pNP β-Gal, room temperature
Method: as §1
E. coli lac z β-galactosidase: 50 mM sodium phosphate, 1.0 mM MgCl2 (pH 7). Substrate: pNP β-Gal, Km = 60 µM.

[6] = pH 7, substrate 2,4-DNP β-Glc, room temperature, read-out: Ki GCase (GH30) β-Glc
[7] = values repeated in running text, read-out: Ki for GCase

Sequence of lac Z β-galactosidase from E. coli (GH2) (P00722 2-1024 limits assumed): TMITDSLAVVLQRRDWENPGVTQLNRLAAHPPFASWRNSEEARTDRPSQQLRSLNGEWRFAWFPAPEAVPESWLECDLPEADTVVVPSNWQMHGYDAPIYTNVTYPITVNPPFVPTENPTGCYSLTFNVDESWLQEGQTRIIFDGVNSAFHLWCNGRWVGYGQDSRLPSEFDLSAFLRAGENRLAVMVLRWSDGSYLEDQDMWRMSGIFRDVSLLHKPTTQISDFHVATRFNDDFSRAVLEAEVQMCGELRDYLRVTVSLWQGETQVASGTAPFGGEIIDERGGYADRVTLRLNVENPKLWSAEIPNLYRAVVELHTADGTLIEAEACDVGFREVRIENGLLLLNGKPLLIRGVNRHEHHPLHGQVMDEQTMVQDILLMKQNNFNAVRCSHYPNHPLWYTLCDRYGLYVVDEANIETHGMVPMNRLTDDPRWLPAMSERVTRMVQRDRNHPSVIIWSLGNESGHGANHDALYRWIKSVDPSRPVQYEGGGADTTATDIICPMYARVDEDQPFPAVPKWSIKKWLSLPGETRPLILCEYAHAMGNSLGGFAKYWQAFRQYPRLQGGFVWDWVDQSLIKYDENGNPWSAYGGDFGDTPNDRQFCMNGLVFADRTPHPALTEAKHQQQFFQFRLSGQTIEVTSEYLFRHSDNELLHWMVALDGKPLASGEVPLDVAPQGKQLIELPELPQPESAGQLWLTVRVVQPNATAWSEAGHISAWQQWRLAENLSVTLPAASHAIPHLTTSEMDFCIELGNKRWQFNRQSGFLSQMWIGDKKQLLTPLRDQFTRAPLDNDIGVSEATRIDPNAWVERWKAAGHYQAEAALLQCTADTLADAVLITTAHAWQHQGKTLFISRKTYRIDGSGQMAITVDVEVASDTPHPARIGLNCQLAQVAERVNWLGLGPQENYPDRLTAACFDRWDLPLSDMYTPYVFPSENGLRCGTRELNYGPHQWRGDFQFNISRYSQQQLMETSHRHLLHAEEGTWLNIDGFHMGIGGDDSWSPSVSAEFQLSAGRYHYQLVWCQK

OC[C@@H]1[C@@H](O)[C@H](O)[C@@H](O)CN1CCCCCCCCCn1cc(COCC(COCc2cn(CCCCCCCCCN3C[C@H](O)[C@@H](O)[C@H](O)[C@H]3CO)nn2)(COCc2cn(CCCCCCCCCN3C[C@H](O)[C@@H](O)[C@H](O)[C@H]3CO)nn2)COCc2cn(CCCCCCCCCN3C[C@H](O)[C@@H](O)[C@H](O)[C@H]3CO)nn2)nn1 [Compound 17]
pKi (GCase; read-out: Ki GCase inhibition, multivalent iminosugars): 7.26

[N-]=[N+]=NCCOCCOc1ccc(C(=O)OCCCCCCN2C[C@@H](O)[C@H](O)[C@@H](O)C2)cc1 [Compound 48, N-(6-((4-(2-(2-Azidoethoxy)ethoxy)benzoyl)oxy)hexyl)-1,5-dideoxy-1,5-imino-D-xylitol]
pKi [1]: < 3.00
pKi [2]: < 3.00
pKi [3]: 4.49
pKi [4, 6]: 5.85
pKi [5]: < 3.00

O=C(OCCCCCCN1C[C@H](O)[C@@H](O)[C@H](O)[C@H]1CO)c1ccc(OCCOCCOC(C(F)(F)F)(C(F)(F)F)C(F)(F)F)cc1 [Compound 49, N-(6-((4-(2-(2-(Nonafluoro-tert-butyloxy)ethoxy)ethoxy)benzoyl)oxy)hexyl)-1,5-dideoxy-1,5-imino-D-glucitol]
pKi [1]: < 3.00
pKi [2]: < 3.00
pKi [3]: 5.44
pKi [4, 6]: 6.46
pKi [5]: < 3.00

N#CCCCCCOc1ccc(C(=O)OCCCCCCN2C[C@@H](O)[C@H](O)[C@@H](O)C2)cc1 [Compound 46, N-(6-((4-((5-Cyanopentyl)oxy)benzoyl)oxy)hexyl)-1,5-dideoxy-1,5-imino-D-xylitol]
pKi [1]: < 3.00
pKi [2]: < 3.00
pKi [3]: 4.92
pKi [4, 6]: 6.21
pKi [5]: < 3.00

[N-]=[N+]=NCCOCCOc1ccc(C(=O)OCCCCCCN2C[C@H](O)[C@@H](O)[C@H](O)[C@H]2CO)cc1 [Compound 47, N-(6-((4-(2-(2-Azidoethoxy)ethoxy)benzoyl)oxy)hexyl)-1,5-dideoxy-1,5-imino-D-glucitol]
pKi [1]: < 3.00
pKi [2]: 3.66
pKi [3]: 5.77
pKi [4, 6]: 7.05
pKi [5]: < 3.00

CN(C)c1cccc2c(S(=O)(=O)NCCc3ccc(C(=O)OCCCCCCN4C[C@H](O)[C@@H](O)[C@H](O)[C@H]4CO)cc3)cccc12 [Compound 55, N-(6-((4-(2-(Dansylamino)ethyl)benzoyl)oxy)hexyl)-1,5-dideoxy-1,5-imino-D-glucitol]
pKi [1]: < 3.00
pKi [2]: 5.06
pKi [3]: 7.22
pKi [4, 7]: 7.74
pKi [5]: 4.05

O=C(NCCc1ccc(C(=O)OCCCCCCN2C[C@H](O)[C@@H](O)[C@H](O)[C@H]2CO)cc1)OCc1ccccc1 [Compound 53, N-(6-((4-(2-(((Benzyloxy)carbonyl)amino)ethyl)benzoyl)oxy)hexyl)-1,5-dideoxy-1,5-imino-D-glucitol]
pKi [1]: < 3.00
pKi [2]: 5.09
pKi [3]: 7.22
pKi [4, 7]: 7.66
pKi [5]: 3.37

CN(C)c1cccc2c(S(=O)(=O)NCCc3ccc(C(=O)OCCCCCCN4C[C@@H](O)[C@H](O)[C@@H](O)C4)cc3)cccc12 [Compound 56, N-(6-((4-(2-(Dansylamino)ethyl)benzoyl)oxy)hexyl)-1,5-dideoxy-1,5-imino-D-xylitol]
pKi [1]: < 3.00
pKi [2]: < 3.00
pKi [3]: 6.12
pKi [5]: 3.70

C#CCOc1ccc(C(=O)OCCCCCCN2C[C@@H](O)[C@H](O)[C@@H](O)C2)cc1 [Compound 52, N-(6-((4-(Propargyloxy)benzoyl)oxy)hexyl)-1,5-dideoxy-1,5-imino-D-xylitol]
pKi [1]: < 3.00
pKi [2]: 3.57
pKi [4, 6]: 6.13
pKi [5]: < 3.00

O=C(NCCc1ccc(C(=O)OCCCCCCN2C[C@@H](O)[C@H](O)[C@@H](O)C2)cc1)OCc1ccccc1 [Compound 54, N-(6-((4-(2-(((Benzyloxy)carbonyl)amino)ethyl)benzoyl)oxy)hexyl)-1,5-dideoxy-1,5-imino-D-xylitol]
pKi [1]: < 3.00
pKi [2]: < 3.00
pKi [3]: 6.24
pKi [4, 6]: 6.51
pKi [5]: < 3.00

CC[C@@H]1[C@H](O)[C@@H](O)[C@H](O)CN1CCCCCC(=O)NCCc1c[nH]cn1 [Compound 20]
pKi (GCase; read-out: Ki GCase): 5.39

N#CCCCCCOc1ccc(C(=O)OCCCCCCN2C[C@H](O)[C@@H](O)[C@H](O)[C@H]2CO)cc1 [Compound 45, N-(6-((4-((5-Cyanopentyl)oxy)benzoyl)oxy)hexyl)-1,5-dideoxy-1,5-imino-D-glucitol]
pKi [1]: < 3.00
pKi [2]: 4.63
pKi [3]: 5.88
pKi [4, 6]: 6.55
pKi [5]: < 3.00

O=C(OCCCCCCN1C[C@@H](O)[C@H](O)[C@@H](O)C1)c1ccc(OCCOCCOC(C(F)(F)F)(C(F)(F)F)C(F)(F)F)cc1 [Compound 50, N-(6-((4-(2-(2-(Nonafluoro-tert-butyloxy)ethoxy)ethoxy)benzoyl)oxy)hexyl)-1,5-dideoxy-1,5-imino-D-xylitol]
pKi [1]: < 3.00
pKi [2]: < 3.00
pKi [3]: 4.63
pKi [4, 6]: 6.40
pKi [5]: 3.59

CC[C@@H]1[C@H](O)[C@@H](O)[C@H](O)CN1CCCCCC(=O)OC [Compound 19]
pKi (GCase; read-out: Ki GCase): 4.24

C#CCOc1ccc(C(=O)OCCCCCCN2C[C@H](O)[C@@H](O)[C@H](O)[C@H]2CO)cc1 [Compound 51, N-(6-((4-(Propargyloxy)benzoyl)oxy)hexyl)-1,5-dideoxy-1,5-imino-D-glucitol]
pKi [1]: < 3.00
pKi [2]: 5.31
pKi [3]: 8.66
pKi [4, 6]: 6.43
pKi [5]: < 3.00
